According to ChEMBL document CHEMBL1909046, “DrugMatrix in vitro pharmacology data”:

Experiments:
Cytochrome P450 1A2 = target: T1, Cytochrome P450 1A2 (Homo sapiens, UniProt P05177); conditions: bti-tn-5b1-4; further: in other assays of this panel Not Active means under 50% inhibition at 10 µM
T1 sequence (P05177 whole entry): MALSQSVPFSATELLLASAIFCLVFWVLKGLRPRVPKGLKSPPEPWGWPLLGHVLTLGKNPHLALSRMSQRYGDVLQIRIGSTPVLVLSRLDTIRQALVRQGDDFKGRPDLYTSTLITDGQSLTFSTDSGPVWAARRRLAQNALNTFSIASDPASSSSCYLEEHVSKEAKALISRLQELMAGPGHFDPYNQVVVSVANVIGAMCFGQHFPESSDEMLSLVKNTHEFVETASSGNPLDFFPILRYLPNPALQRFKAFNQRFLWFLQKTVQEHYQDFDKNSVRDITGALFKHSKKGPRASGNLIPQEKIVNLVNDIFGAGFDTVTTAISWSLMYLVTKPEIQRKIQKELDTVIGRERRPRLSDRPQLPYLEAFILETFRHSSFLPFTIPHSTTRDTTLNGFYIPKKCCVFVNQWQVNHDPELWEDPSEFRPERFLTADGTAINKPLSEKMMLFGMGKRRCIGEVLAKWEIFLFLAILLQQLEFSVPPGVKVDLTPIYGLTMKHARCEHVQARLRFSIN

[1] = target: T2, C-X-C chemokine receptor type 1 (Homo sapiens, UniProt P25024); further: in other assays of this panel Not Active means under 50% inhibition at 10 µM
T2 sequence (P25024 whole entry): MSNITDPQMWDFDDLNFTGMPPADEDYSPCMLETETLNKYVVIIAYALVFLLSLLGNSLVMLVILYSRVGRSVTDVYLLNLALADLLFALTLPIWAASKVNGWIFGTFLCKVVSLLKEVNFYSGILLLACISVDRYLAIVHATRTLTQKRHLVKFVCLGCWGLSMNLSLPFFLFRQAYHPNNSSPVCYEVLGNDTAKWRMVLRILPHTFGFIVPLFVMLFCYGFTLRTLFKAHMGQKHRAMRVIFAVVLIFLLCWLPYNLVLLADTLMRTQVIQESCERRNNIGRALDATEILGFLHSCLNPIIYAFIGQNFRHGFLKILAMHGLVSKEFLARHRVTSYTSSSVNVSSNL

[2] = target: Beta-3 adrenergic receptor (Homo sapiens, UniProt P13945); test: DRUGMATRIX: Adrenergic beta3 radioligand binding (ligand: [125I] Cyanopindolol); format: cell membranes, HEK293, Membrane; conditions: hek293; Not Active = under 50% inhibition at 10 µM
Glucocorticoid receptor = target: T3, Glucocorticoid receptor (Homo sapiens, UniProt P04150); conditions: hela s3; further: in other assays of this panel Not Active means under 50% inhibition at 10 µM
T3 sequence (P04150 whole entry): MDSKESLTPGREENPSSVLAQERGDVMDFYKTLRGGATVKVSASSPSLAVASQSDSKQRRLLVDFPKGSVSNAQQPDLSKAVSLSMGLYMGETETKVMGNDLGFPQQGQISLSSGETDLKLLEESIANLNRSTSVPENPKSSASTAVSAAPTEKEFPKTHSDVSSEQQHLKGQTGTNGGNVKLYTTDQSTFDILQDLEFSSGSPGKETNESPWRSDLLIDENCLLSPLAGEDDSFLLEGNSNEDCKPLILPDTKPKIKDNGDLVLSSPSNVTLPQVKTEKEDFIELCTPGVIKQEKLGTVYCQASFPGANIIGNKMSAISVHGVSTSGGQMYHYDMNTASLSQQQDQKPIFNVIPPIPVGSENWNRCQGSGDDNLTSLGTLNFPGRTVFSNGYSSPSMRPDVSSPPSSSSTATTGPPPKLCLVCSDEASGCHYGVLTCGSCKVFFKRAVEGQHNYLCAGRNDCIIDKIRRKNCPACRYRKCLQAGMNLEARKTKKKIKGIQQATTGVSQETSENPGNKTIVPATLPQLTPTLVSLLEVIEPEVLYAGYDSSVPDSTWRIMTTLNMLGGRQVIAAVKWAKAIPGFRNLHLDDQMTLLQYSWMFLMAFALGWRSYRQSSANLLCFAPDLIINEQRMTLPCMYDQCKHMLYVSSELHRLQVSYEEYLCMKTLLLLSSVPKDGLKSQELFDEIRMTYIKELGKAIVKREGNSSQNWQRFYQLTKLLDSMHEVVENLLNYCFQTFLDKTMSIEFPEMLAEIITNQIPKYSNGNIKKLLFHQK

Cannabinoid receptor 1 = Cannabinoid receptor 1 (Homo sapiens, UniProt P21554); format: cell membranes, Chem-1, Membrane; conditions: chem-1; further: in other assays of this panel Not Active means under 50% inhibition at 10 µM
[3] = target: T4, Cholecystokinin receptor type A (Homo sapiens, UniProt P32238); format: cell membranes, Membrane; conditions: 1321-n1; further: in other assays of this panel Not Active means under 50% inhibition at 10 µM
T4 sequence (P32238 whole entry): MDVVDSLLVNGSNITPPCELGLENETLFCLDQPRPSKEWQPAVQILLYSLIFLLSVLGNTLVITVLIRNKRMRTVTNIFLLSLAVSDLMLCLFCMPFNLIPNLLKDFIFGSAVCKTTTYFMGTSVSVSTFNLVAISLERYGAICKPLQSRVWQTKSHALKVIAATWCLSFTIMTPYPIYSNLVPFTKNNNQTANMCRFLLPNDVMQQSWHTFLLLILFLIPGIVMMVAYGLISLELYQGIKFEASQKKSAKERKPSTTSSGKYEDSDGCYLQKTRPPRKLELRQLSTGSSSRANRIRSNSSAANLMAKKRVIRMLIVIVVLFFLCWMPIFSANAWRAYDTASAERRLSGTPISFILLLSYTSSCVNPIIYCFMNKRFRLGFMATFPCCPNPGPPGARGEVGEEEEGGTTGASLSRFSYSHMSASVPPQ

[4] = DRUGMATRIX: Phosphodiesterase PDE3 enzyme inhibition (substrate: [3H]cAMP + cAMP); format: tissue-based, Homo sapiens; conditions: platelet; Not Active = under 50% inhibition at 10 µM

Sequence of Cannabinoid receptor 1 (P21554 whole entry): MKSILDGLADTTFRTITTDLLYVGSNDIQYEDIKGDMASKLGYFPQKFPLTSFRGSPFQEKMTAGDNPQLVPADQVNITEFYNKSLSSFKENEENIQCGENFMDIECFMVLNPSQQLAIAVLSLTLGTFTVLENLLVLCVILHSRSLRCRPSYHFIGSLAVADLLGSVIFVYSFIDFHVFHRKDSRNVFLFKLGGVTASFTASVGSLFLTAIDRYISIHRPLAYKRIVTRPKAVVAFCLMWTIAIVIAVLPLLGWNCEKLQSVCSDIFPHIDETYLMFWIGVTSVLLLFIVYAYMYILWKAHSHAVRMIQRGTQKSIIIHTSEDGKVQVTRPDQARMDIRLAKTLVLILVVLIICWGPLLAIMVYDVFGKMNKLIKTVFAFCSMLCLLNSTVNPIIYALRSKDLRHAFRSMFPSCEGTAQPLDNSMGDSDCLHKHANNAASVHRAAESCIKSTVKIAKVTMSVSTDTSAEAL
Sequence of Beta-3 adrenergic receptor (P13945 whole entry): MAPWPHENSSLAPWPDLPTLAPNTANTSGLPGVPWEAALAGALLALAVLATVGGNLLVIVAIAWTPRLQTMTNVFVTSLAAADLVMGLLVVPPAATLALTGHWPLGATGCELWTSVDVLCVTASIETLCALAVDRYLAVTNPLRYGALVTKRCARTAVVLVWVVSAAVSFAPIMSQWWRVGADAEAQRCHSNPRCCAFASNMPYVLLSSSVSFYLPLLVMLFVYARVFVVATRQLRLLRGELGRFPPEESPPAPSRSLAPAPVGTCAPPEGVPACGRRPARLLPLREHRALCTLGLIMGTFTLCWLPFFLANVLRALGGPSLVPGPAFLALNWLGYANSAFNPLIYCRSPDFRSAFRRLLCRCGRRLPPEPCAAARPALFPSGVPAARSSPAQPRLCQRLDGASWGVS

OC[C@H]1O[C@@H]2O[C@H]3[C@H](O)[C@@H](O)[C@@H](O[C@H]4[C@H](O)[C@@H](O)[C@@H](O[C@H]5[C@H](O)[C@@H](O)[C@@H](O[C@H]6[C@H](O)[C@@H](O)[C@@H](O[C@H]7[C@H](O)[C@@H](O)[C@@H](O[C@H]1[C@H](O)[C@H]2O)O[C@@H]7CO)O[C@@H]6CO)O[C@@H]5CO)O[C@@H]4CO)O[C@@H]3CO [ALFADEX]
Not Active: IC50 (Cytochrome P450 1A2) | Ki (Cytochrome P450 1A2) | IC50 [1] | IC50 [2] | IC50 (Glucocorticoid receptor) | IC50 (Cannabinoid receptor 1) | IC50 [3] | IC50 [4] | Ki [4]

CCN1CCN(c2cc3c(cc2F)c(=O)c(C(=O)O)cn3C2CC2)CC1 [ENROFLOXACIN]
Not Active: IC50 (Cytochrome P450 1A2) | Ki (Cytochrome P450 1A2) | IC50 [1] | IC50 [2] | IC50 (Glucocorticoid receptor) | IC50 (Cannabinoid receptor 1) | IC50 [3] | IC50 [4] | Ki [4]

CN(Cc1cc(Br)cc(Br)c1N)C1CCCCC1 [BROMHEXINE]
Not Active: IC50 (Cytochrome P450 1A2) | Ki (Cytochrome P450 1A2) | IC50 [1] | IC50 [2] | IC50 (Glucocorticoid receptor) | IC50 (Cannabinoid receptor 1) | IC50 [3] | IC50 [4] | Ki [4]

CC12CCC(CC1)C(C)(C)O2 [EUCALYPTOL]
Not Active: IC50 (Cytochrome P450 1A2) | Ki (Cytochrome P450 1A2) | IC50 [1] | IC50 [2] | IC50 (Glucocorticoid receptor) | IC50 (Cannabinoid receptor 1) | IC50 [3] | IC50 [4] | Ki [4]

C[C@@H]1[C@H](O)[C@@H](C)/C=C/C=C/C=C/C=C/C=C/C=C/C=C/[C@H](O[C@@H]2O[C@H](C)[C@@H](O)[C@H](N)[C@@H]2O)C[C@@H]2O[C@](O)(C[C@@H](O)C[C@@H](O)[C@H](O)CC[C@@H](O)C[C@@H](O)CC(=O)O[C@H]1C)C[C@H](O)[C@H]2C(=O)O [AMPHOTERICIN B]
Not Active: IC50 (Cytochrome P450 1A2) | Ki (Cytochrome P450 1A2) | IC50 [1] | IC50 [2] | IC50 (Glucocorticoid receptor) | IC50 (Cannabinoid receptor 1) | IC50 [3] | IC50 [4] | Ki [4]

Cc1cc(C(C)(C)C)c(O)c(C)c1CC1=NCCN1 [OXYMETAZOLINE]
Not Active: IC50 (Cytochrome P450 1A2) | Ki (Cytochrome P450 1A2) | IC50 [1] | IC50 [2] | IC50 (Glucocorticoid receptor) | IC50 (Cannabinoid receptor 1) | IC50 [3] | IC50 [4] | Ki [4]

CC12CCC(CC1=O)C2(C)C (stereo unspecified) [CAMPHOR]
Not Active: IC50 (Cytochrome P450 1A2) | Ki (Cytochrome P450 1A2) | IC50 [1] | IC50 [2] | IC50 (Glucocorticoid receptor) | IC50 (Cannabinoid receptor 1) | IC50 [3] | IC50 [4] | Ki [4]

C[N+](C)(C)CCOP(=O)([O-])OC[C@H](O)CO
Not Active: IC50 (Cytochrome P450 1A2) | Ki (Cytochrome P450 1A2) | IC50 [1] | IC50 [2] | IC50 (Glucocorticoid receptor) | IC50 (Cannabinoid receptor 1) | IC50 [3] | IC50 [4] | Ki [4]

Nc1nc(F)nc2c1ncn2[C@@H]1O[C@H](CO)[C@@H](O)[C@@H]1O [FLUDARABINE]
Not Active: IC50 (Cytochrome P450 1A2) | Ki (Cytochrome P450 1A2) | IC50 [1] | IC50 [2] | IC50 (Glucocorticoid receptor) | IC50 (Cannabinoid receptor 1) | IC50 [3] | IC50 [4] | Ki [4]

Nc1nc(N)c2nc(CNc3ccc(C(=O)N[C@@H](CCC(=O)O)C(=O)O)cc3)cnc2n1 [AMINOPTERIN]
Not Active: IC50 (Cytochrome P450 1A2) | Ki (Cytochrome P450 1A2) | IC50 [1] | IC50 [2] | IC50 (Glucocorticoid receptor) | IC50 (Cannabinoid receptor 1) | IC50 [3] | IC50 [4] | Ki [4]

C=C(Cl)Cl [1,1-DICHLOROETHENE]
Not Active: IC50 (Cytochrome P450 1A2) | Ki (Cytochrome P450 1A2) | IC50 [1] | IC50 [2] | IC50 (Glucocorticoid receptor) | IC50 (Cannabinoid receptor 1) | IC50 [3] | IC50 [4] | Ki [4]

Oc1ncnc2[nH]ncc12 [ALLOPURINOL]
Not Active: IC50 (Cytochrome P450 1A2) | Ki (Cytochrome P450 1A2) | IC50 [1] | IC50 [2] | IC50 (Glucocorticoid receptor) | IC50 (Cannabinoid receptor 1) | IC50 [3] | IC50 [4] | Ki [4]

O=C(O)CCc1nc(-c2ccccc2)c(-c2ccccc2)o1 [OXAPROZIN]
Not Active: IC50 (Cytochrome P450 1A2) | Ki (Cytochrome P450 1A2) | IC50 [1] | IC50 [2] | IC50 (Glucocorticoid receptor) | IC50 (Cannabinoid receptor 1) | IC50 [3] | IC50 [4] | Ki [4]

ClC1=C(Cl)[C@]2(Cl)[C@@H]3[C@@H]4C[C@@H]([C@H]5O[C@@H]45)[C@@H]3[C@@]1(Cl)C2(Cl)Cl [DIELDRIN]
Not Active: IC50 (Cytochrome P450 1A2) | Ki (Cytochrome P450 1A2) | IC50 [1] | IC50 [2] | IC50 (Glucocorticoid receptor) | IC50 (Cannabinoid receptor 1) | IC50 [3] | IC50 [4] | Ki [4]
